Results as given in patent publication US20260241012A1, “1,8-NAPHTHYRIDIN-2-ONE HETEROBIFUNCTIONAL BCL6 DEGRADERS” (Treeline Biosciences, Inc., priority 2022, published 2026).

Target: T1, N-terminal HiBiT tagged BCL6 (Homo sapiens, UniProt P41182)
T1 construct: expressed in transfected cells; host or cells: HT1080 (ATCC CCL-121), stably transduced with lentivirus pLV-UBC-N-HiBiT-BCL6-PGK-puro
Assay: HiBiT based degradation assay
Assay type: cell-based
Conditions: HT1080 cells expressing N-terminal HiBiT tagged BCL6, 5 hours of incubation; for Ymin (5 hr): BCL6 degradation normalized with DMSO control; for DC50: four-parameter logistic model, read-out: EC50 (5 hr)
How it was run: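 Degradation measured by luminescence from the Nano-Glo HiBiT lytic reagent (15 min, room temperature), normalized to DMSO controls and fitted to a four-parameter curve.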

Row | SMILES | Ymin (5 hr) | DC50
1 | CNC(=O)COc1cc2cc(Nc3nc(N4CC[C@H](CN5CCN(c6cccc7c(C8CCC(=O)NC8=O)nn(C)c67)CC5)[C@H](C)C4)ncc3Cl)cnc2n(C(C)C)c1=O (stereo partly drawn) [Compound 177a, 2-((6-((5-chloro-2-((3S,4S)-4-((4-(3-(2,6-dioxopiperidin-3-yl)-1-methyl-1H-indazol-7-yl)piperazin-1-yl)methyl)-3-methylpiperidin-1-yl)pyrimidin-4-yl)amino)-1-isopropyl-2-oxo-1,2-dihydro-1,8-naphthyridin-3-yl)oxy)-N-methylacetamide] | ++++ (Ymin < 30%) | 10 to 100 nM
2 | CNC(=O)COc1cc2cc(Nc3nc(N4CCC(CC5CCN(c6cccc7c(C8CCC(=O)NC8=O)nn(C)c67)CC5)CC4)ncc3Cl)cnc2n(C)c1=O (stereo not shown) [Compound 139, 2-((6-((5-chloro-2-(4-((1-(3-(2,6-dioxopiperidin-3-yl)-1-methyl-1H-indazol-7-yl)piperidin-4-yl)methyl)piperidin-1-yl)pyrimidin-4-yl)amino)-1-methyl-2-oxo-1,2-dihydro-1,8-naphthyridin-3-yl)oxy)-N-methylacetamide] | +++ (30% ≤ Ymin < 50%) | 100 to 1000 nM
3 | CNC(=O)COc1cc2cc(Nc3nc(N4C[C@@H](C)N(CC5CCN(c6cccc7c(C8CCC(=O)NC8=O)nn(C)c67)CC5)C[C@@H]4C)ncc3Cl)cnc2n(C(C)C)c1=O (stereo partly drawn) [Compound 179b, 2-[[6-[[5-chloro-2-[(2S,5R)-4-[[1-[3-(2,6-dioxo-3-piperidyl)-1-methyl-indazol-7-yl]-4-piperidyl]methyl]-2,5-dimethyl-piperazin-1-yl]pyrimidin-4-yl]amino]-1-isopropyl-2-oxo-1,8-naphthyridin-3-yl]oxy]-N-methyl-acetamide] | +++ (30% ≤ Ymin < 50%) | 100 to 1000 nM
4 | CNC(=O)COc1cc2cc(Nc3nc(N4CCC([C@@](C)(O)C5CCN(c6cccc7c(C8CCC(=O)NC8=O)nn(C)c67)CC5)CC4)ncc3Cl)cnc2n(C(C)C)c1=O (single isomer, unassigned) [Compound 194a] | ++++ (Ymin < 30%) | 10 to 100 nM
5 | CNC(=O)COc1cc2cc(Nc3nc(N4CCN(CC5CCN(c6cccc7c(C8CCC(=O)NC8=O)nn(C)c67)CC5)[C@@H](C)C4)ncc3Cl)cnc2n(C(C)C)c1=O (stereo partly drawn) [Compound 105a, 2-((6-((5-chloro-2-((3S)-4-((1-(3-(2,6-dioxopiperidin-3-yl)-1-methyl-1H-indazol-7-yl)piperidin-4-yl)methyl)-3-methylpiperazin-1-yl)pyrimidin-4-yl)amino)-1-isopropyl-2-oxo-1,2-dihydro-1,8-naphthyridin-3-yl)oxy)-N-methylacetamide] | ++++ (Ymin < 30%) | 10 to 100 nM
6 | CNC(=O)COc1cc2cc(Nc3nc(N4CCN(CC5CCN(c6cccc7c(C8CCC(=O)NC8=O)nn(C)c67)CC5)C[C@@H]4C)ncc3Cl)cnc2n(C(C)C)c1=O (stereo partly drawn) [Compound 168a, 2-[[6-[[5-chloro-2-[(2S)-4-[[1-[3-(2,6-dioxo-3-piperidyl)-1-methyl-indazol-7-yl]-4-piperidyl]methyl]-2-methyl-piperazin-1-yl]pyrimidin-4-yl]amino]-1-isopropyl-2-oxo-1,8-naphthyridin-3-yl]oxy]-N-methyl-acetamide] | +++ (30% ≤ Ymin < 50%) | 10 to 100 nM
7 | CNC(=O)COc1cc2cc(Nc3nc(N4CC[C@@H](CN5CCN(c6cccc7c(C8CCC(=O)NC8=O)nn(C)c67)CC5)[C@@H](C)C4)ncc3Cl)cnc2n(C(C)C)c1=O (stereo partly drawn) [Compound 177b, 2-[[6-[[5-chloro-2-[(3R,4R)-4-[[4-[3-(2,6-dioxo-3-piperidyl)-1-methyl-indazol-7-yl]piperazin-1-yl]methyl]-3-methyl-1-piperidyl]pyrimidin-4-yl]amino]-1-isopropyl-2-oxo-1,8-naphthyridin-3-yl]oxy]-N-methyl-acetamide] | +++ (30% ≤ Ymin < 50%) | 10 to 100 nM
8 | CNC(=O)COc1cc2cc(Nc3nc(N4C5COCC4CN(CC4CCN(c6cccc7c(C8CCC(=O)NC8=O)nn(C)c67)CC4)C5)ncc3Cl)cnc2n(C(C)C)c1=O (stereo not shown) [Compound 162, 2-((6-((5-chloro-2-(7-((1-(3-(2,6-dioxopiperidin-3-yl)-1-methyl-1H-indazol-7-yl)piperidin-4-yl)methyl)-3-oxa-7,9-diazabicyclo[3.3.1]nonan-9-yl)pyrimidin-4-yl)amino)-1-isopropyl-2-oxo-1,2-dihydro-1,8-naphthyridin-3-yl)oxy)-N-methylacetamide] | ++++ (Ymin < 30%) | < 10 nM
9 | CNC(=O)COc1cc2cc(Nc3nc(N4CCN(CC5CCN(c6cccc7c(C8CCC(=O)NC8=O)nn(C)c67)CC5)CC4)ncc3Cl)cnc2n(C2CC2)c1=O (stereo not shown) [Compound 150, 2-((6-((5-chloro-2-(4-((1-(3-(2,6-dioxopiperidin-3-yl)-1-methyl-1H-indazol-7-yl)piperidin-4-yl)methyl)piperazin-1-yl)pyrimidin-4-yl)amino)-1-cyclopropyl-2-oxo-1,2-dihydro-1,8-naphthyridin-3-yl)oxy)-N-methylacetamide] | ++++ (Ymin < 30%) | < 10 nM
10 | CNC(=O)COc1cc2cc(Nc3nc(N4CCN(CC5CCN(c6cccc7c(C8CCC(=O)NC8=O)nn(C)c67)CC5)C[C@@H]4CO)ncc3Cl)cnc2n(C(C)C)c1=O (stereo partly drawn) [Compound 155b, 2-((6-((5-chloro-2-((2R)-4-((1-(3-(2,6-dioxopiperidin-3-yl)-1-methyl-1H-indazol-7-yl)piperidin-4-yl)methyl)-2-(hydroxymethyl)piperazin-1-yl)pyrimidin-4-yl)amino)-1-isopropyl-2-oxo-1,2-dihydro-1,8-naphthyridin-3-yl)oxy)-N-methylacetamide] | ++++ (Ymin < 30%) | < 10 nM
11 | CNC(=O)COc1cc2cc(Nc3nc(N4CCN(CC5CCN(c6cccc7c(C8CCC(=O)NC8=O)nn(C)c67)CC5)CC4)ncc3Cl)cnc2n(CCO)c1=O (stereo not shown) [Compound 186, 2-((6-((5-chloro-2-(4-((1-(3-(2,6-dioxopiperidin-3-yl)-1-methyl-1H-indazol-7-yl)piperidin-4-yl)methyl)piperazin-1-yl)pyrimidin-4-yl)amino)-1-(2-hydroxyethyl)-2-oxo-1,2-dihydro-1,8-naphthyridin-3-yl)oxy)-N-methylacetamide] | ++++ (Ymin < 30%) | 10 to 100 nM

More lines, now with the values ahead:

Row | Ymin (5 hr) | DC50 | SMILES
12 | +++ (30% ≤ Ymin < 50%) | < 10 nM | CNC(=O)COc1cc2cc(Nc3nc(N4CCCN(CC5CCN(c6ccc7c(C8CCC(=O)NC8=O)nn(C)c7c6)CC5)CC4)ncc3Cl)cnc2n(C)c1=O (stereo not shown) [Compound 111, 2-((6-((5-chloro-2-(4-((1-(3-(2,6-dioxopiperidin-3-yl)-1-methyl-1H-indazol-6-yl)piperidin-4-yl)methyl)-1,4-diazepan-1-yl)pyrimidin-4-yl)amino)-1-methyl-2-oxo-1,2-dihydro-1,8-naphthyridin-3-yl)oxy)-N-methylacetamide]
13 | +++ (30% ≤ Ymin < 50%) | < 10 nM | CNC(=O)COc1cc2cc(Nc3nc(N4CCC(CN5CCN(c6ccc7c(C8CCC(=O)NC8=O)nn(C)c7c6)C[C@H]5C)CC4)ncc3Cl)cnc2n(C(C)C)c1=O (stereo partly drawn) [Compound 215a, 2-((6-((5-chloro-2-(4-(((2R)-4-(3-(2,6-dioxopiperidin-3-yl)-1-methyl-1H-indazol-6-yl)-2-methylpiperazin-1-yl)methyl)piperidin-1-yl)pyrimidin-4-yl)amino)-1-isopropyl-2-oxo-1,2-dihydro-1,8-naphthyridin-3-yl)oxy)-N-methylacetamide]
14 | ++ (50% ≤ Ymin < 70%) | < 10 nM | CNC(=O)COc1cc2cc(Nc3nc(N4CCC([C@@](C)(O)C5CCN(c6ccc7c(C8CCC(=O)NC8=O)nn(C)c7c6)CC5)CC4)ncc3Cl)cnc2n(C(C)C)c1=O (single isomer, unassigned) [Compound 201a]
15 | ++++ (Ymin < 30%) | < 10 nM | CNC(=O)COc1cc2cc(Nc3nc(N4C[C@@H]5[C@@H](CN6CCN(c7cccc8c(C9CCC(=O)NC9=O)nn(C)c78)CC6)[C@@H]5C4)ncc3Cl)cnc2n(C)c1=O (stereo partly drawn) [Compound 136a, 2-((6-((5-chloro-2-((1R,5S,6s)-6-((4-(3-(2,6-dioxopiperidin-3-yl)-1-methyl-1H-indazol-7-yl)piperazin-1-yl)methyl)-3-azabicyclo[3.1.0]hexan-3-yl)pyrimidin-4-yl)amino)-1-methyl-2-oxo-1,2-dihydro-1,8-naphthyridin-3-yl)oxy)-N-methylacetamide]
16 | ++ (50% ≤ Ymin < 70%) | < 10 nM | CNC(=O)COc1cc2cc(Nc3nc(N4CCN(C(C)(C)C5CCN(c6ccc7c(C8CCC(=O)NC8=O)nn(C)c7c6)CC5)CC4)ncc3Cl)cnc2n(C(C)C)c1=O (stereo not shown) [Compound 158, 2-((6-((5-chloro-2-(4-(2-(1-(3-(2,6-dioxopiperidin-3-yl)-1-methyl-1H-indazol-6-yl)piperidin-4-yl)propan-2-yl)piperazin-1-yl)pyrimidin-4-yl)amino)-1-isopropyl-2-oxo-1,2-dihydro-1,8-naphthyridin-3-yl)oxy)-N-methylacetamide]
17 | +++ (30% ≤ Ymin < 50%) | < 10 nM | CNC(=O)COc1cc2cc(Nc3nc(N4CCN(CCC5CCN(c6cccc7c(C8CCC(=O)NC8=O)nn(C)c67)CC5)CC4)ncc3Cl)cnc2n(C)c1=O (stereo not shown) [Compound 115, 2-((6-((5-chloro-2-(4-(2-(1-(3-(2,6-dioxopiperidin-3-yl)-1-methyl-1H-indazol-7-yl)piperidin-4-yl)ethyl)piperazin-1-yl)pyrimidin-4-yl)amino)-1-methyl-2-oxo-1,2-dihydro-1,8-naphthyridin-3-yl)oxy)-N-methylacetamide]
